# Values quoted from earlier work in patent US20250333423A1, “SMALL MOLECULE MODULATORS OF GP130 SIGNALING PATHWAYS” (CarthroniX, Inc., priority 2022, published 2025).
# How the values were obtained:
# gp130 = biological target: T1, gp130 (Homo sapiens, UniProt P40189)
# T1 sequence (P40189 23-918): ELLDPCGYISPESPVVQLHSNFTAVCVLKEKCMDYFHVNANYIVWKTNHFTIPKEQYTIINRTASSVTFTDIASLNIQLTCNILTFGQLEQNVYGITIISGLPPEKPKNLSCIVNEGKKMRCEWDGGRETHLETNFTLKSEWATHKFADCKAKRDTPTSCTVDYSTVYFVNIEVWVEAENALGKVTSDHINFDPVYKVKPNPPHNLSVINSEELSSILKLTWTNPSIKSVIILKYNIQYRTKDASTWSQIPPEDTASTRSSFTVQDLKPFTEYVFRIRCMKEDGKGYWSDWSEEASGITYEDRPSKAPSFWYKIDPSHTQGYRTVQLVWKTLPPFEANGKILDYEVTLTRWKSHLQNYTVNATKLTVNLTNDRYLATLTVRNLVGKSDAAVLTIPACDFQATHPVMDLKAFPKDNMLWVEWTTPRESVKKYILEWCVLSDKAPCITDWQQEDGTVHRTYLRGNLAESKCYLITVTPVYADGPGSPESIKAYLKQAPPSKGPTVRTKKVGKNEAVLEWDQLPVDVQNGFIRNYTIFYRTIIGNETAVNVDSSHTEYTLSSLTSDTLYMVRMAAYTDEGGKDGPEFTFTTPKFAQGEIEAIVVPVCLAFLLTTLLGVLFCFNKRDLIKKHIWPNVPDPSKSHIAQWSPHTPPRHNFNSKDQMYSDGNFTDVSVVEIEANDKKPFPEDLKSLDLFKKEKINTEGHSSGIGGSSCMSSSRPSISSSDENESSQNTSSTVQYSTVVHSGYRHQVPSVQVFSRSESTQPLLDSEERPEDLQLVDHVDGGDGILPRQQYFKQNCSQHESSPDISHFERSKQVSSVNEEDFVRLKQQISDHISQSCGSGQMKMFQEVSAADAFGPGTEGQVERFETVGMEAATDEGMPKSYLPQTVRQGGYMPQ
smiles,measurement,setting,value
Brc1ccc(Nc2nc(-c3ccccc3)cs2)cc1 [RCGD 423],interaction with gp130,gp130; in vitro,interacts with the extracellular region of gp130
same,formation of gp130 homodimers,gp130; ligand-independent,"promotes the formation of active, ligand-independent gp130 homodimers"
same,prevention of cartilage degeneration,rat model of OA,remarkable ability to prevent cartilage degeneration
